Test system: wild rats
Test: Field experiments with paired trap boxes: trap captures of wild rats
Format: in vivo, rat
Conditions: Experiment 16, 4 μg synthetic androstenone
From the text: Four field experiments were run in Vancouver B.C. to evaluate the effect of synthetic androstenone and synthetic testosterone on captures of female wild mice and rats in combination with species-specific male sex pheromone blend. Experimental replicates were set up along the interior and exterior walls of buildings as depicted in FIG. 7. Experiment 15 evaluated captures of wild mice in trap boxes baited with high-levels of androstenone; Experiment 16 evaluated captures of wild rats in traps baited with high-levels of androstenone; Experiment 17 evaluated captures of wild mice in traps baited with low-levels of testosterone; and Experiment 18 evaluated captures of wild mice in traps baited with low-levels of androstenone. Experiment 15 was run from Feb. 4, 2016 to Apr. 14, 2016. Experiment 16 was run from Feb. 26, 2016 to Sep. 19, 2016. Experiments 17 and 18 were run in parallel from Jun. 2, 2016 to Sep. 8, 2016.
Each replicate of Experiments 15 to 18 consisted of a pair of trap boxes (Mice: PROTECTA® Mouse, Bell Laboratories Inc., Madison, Wis. 53704, USA; Rats: PROTECTA® Sidekick™; Bell Laboratories Inc., Madison, Wis. 53704), with 50-cm spacing between boxes in each pair, and at least 2 m between pairs. Each trap box contained an armed snap trap (1, Mice: Victor® Easy Set® Mouse Trap; Rats: Victor® Easy Set® Rat Trap; Woodstream Corp, Lititz, Pa. 17543, USA) baited with a cereal-based food bait and a scintillation vial (2) containing synthetic sex pheromone blends. Each box in each pair also contained a treatment stimulus that consisted of a piece of Whatman #1 filter paper (3a) that by random assignment was treated with: 4 μg of synthetic androstenone dissolved in 50 μl ether (Experiments 15 and 16); 750 μg of synthetic testosterone dissolved in 50 μl ether (Experiment 17); or 750 μg of synthetic androstenone dissolved in 50 μl ether (Experiment 18). […]
Experiments 19 and 20 evaluated the effect of synthetic blends of progesterone and estradiol (estrogen) on captures of wild mice (Experiment 19) and wild rats (Experiment 20) in the field. […]

## C[C@]12CCC(=O)C[C@@H]1CC[C@@H]1[C@@H]2CC[C@]2(C)C=CC[C@@H]12 [androstenone, 5α-androst-16-en-3-one]
  captures of juvenile and adult male rats: no significant effect
  captures of juvenile female rats: no significant effect
With food bait and male rat sex pheromone blend
  captures of adult female rats vs control boxes: significantly more

From patent US11185077B2, “Attractants for rodents” (priority 2016, dated 2021)
